{
  "source": "patent US20260242478A1",
  "about": "“ANTIBODIES FOR TARGETING PSMA AND CD28 AND USES THEREOF” (Janux Therapeutics, Inc., priority 2023, published 2026)",
  "note": "Where no end group is shown, it is not given here.",
  "data": [
    {"test_system": "anti-CD28 scFv", "sequence (as listed by the source)": "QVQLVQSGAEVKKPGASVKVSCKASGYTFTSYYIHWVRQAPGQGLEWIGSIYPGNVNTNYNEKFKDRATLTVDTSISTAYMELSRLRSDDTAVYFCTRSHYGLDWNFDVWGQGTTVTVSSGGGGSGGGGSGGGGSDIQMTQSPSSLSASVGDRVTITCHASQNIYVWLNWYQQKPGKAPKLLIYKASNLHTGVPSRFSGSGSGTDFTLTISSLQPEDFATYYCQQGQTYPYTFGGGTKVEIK", "assay": "Panning ELISA of clonal phage, anti-CD28 scFv, with or without CD28 soluble protein (Peptide-9 library)", "assay_type": "binding", "settings": "Peptide-9 library, background (no anti-CD28 scFv)", "protocol": "(§1) Clonal phage were harvested as crude supernatants and screened via standard enzyme linked immunosorbent assays (ELISAs). […] Prior to the addition of clonal phage, wells were incubated with blocking buffer and CD28 soluble protein or blocking buffer alone. Without washing or aspirating, clonal phage supernatants were then added to the wells and incubated for a short time. Wells were then washed followed by detection of bound phage using a horse radish peroxidase conjugated anti-M13 antibody. Clonal phage of interest were then sent for sequence analysis.", "values": [
      {"substance": "Phage-39 (MDWCPMHLWHQCFN; not fully specified; cysteine pairing not given here)", "Background signal": 0.073},
      {"substance": "Phage-40 (MDWCPIDMWDQCFN; not fully specified; cysteine pairing not given here)", "Background signal": 0.061},
      {"substance": "Phage-41 (MAWCPRDKWSECFS; not fully specified; cysteine pairing not given here)", "Background signal": 0.062},
      {"substance": "Phage-42 (MDWCPRHLWVHCFN; not fully specified; cysteine pairing not given here)", "Background signal": 0.071},
      {"substance": "Phage-43 (MDWCPRALWHECFY; not fully specified; cysteine pairing not given here)", "Background signal": 0.115},
      {"substance": "Phage-44 (MDWCPIALWAECFN; not fully specified; cysteine pairing not given here)", "Background signal": 0.111},
      {"substance": "Phage-45 (MDWCPRPLWHECFS; not fully specified; cysteine pairing not given here)", "Background signal": 0.078},
      {"substance": "Phage-46 (MHWCPIDLWAECYA; not fully specified; cysteine pairing not given here)", "Background signal": 0.082},
      {"substance": "Phage-47 (MAWCPVYLWHECFN; not fully specified; cysteine pairing not given here)", "Background signal": 0.094},
      {"substance": "Phage-48 (IDWCPRYLWDECYN; not fully specified; cysteine pairing not given here)", "Background signal": 0.061},
      {"substance": "Phage-49 (MSWCPIHLWNECFN; not fully specified; cysteine pairing not given here)", "Background signal": 0.083},
      {"substance": "Phage-50 (MDWCPPYLWNVCFS; not fully specified; cysteine pairing not given here)", "Background signal": 0.063},
      {"substance": "Phage-51 (MDWCPMDLWDYCFN; not fully specified; cysteine pairing not given here)", "Background signal": 0.071},
      {"substance": "Phage-52 (MDWCPINLWDECFS; not fully specified; cysteine pairing not given here)", "Background signal": 0.062},
      {"substance": "Phage-53 (MDWCPMHLWNKCFN; not fully specified; cysteine pairing not given here)", "Background signal": 0.071},
      {"substance": "Phage-54 (MNWCPRDMWYQCFN; not fully specified; cysteine pairing not given here)", "Background signal": 0.068},
      {"substance": "Phage-55 (QDWCPRHMWSFCFH; not fully specified; cysteine pairing not given here)", "Background signal": 0.138},
      {"substance": "Phage-56 (MHWCPMDQWSNCFN; left off: large carriers)", "Background signal": 0.062},
      {"substance": "Phage-57 (MDWCPRHRWVDCFY; left off: large carriers)", "Background signal": 0.073},
      {"substance": "Phage-58 (MHWCPIDRWADCFN; left off: large carriers)", "Background signal": 0.074},
      {"substance": "Phage-59 (MDWCPRDSWHLCFA; left off: large carriers)", "Background signal": 0.073},
      {"substance": "Phage-60 (MDWCPRTLWYLCFN; left off: large carriers)", "Background signal": 0.508},
      {"substance": "Phage-61 (MVSCPTTMWNRCFN; left off: large carriers)", "Background signal": 0.079},
      {"substance": "Phage-62 (MDWCPSYLWNECFF; left off: large carriers)", "Background signal": 0.065},
      {"substance": "Phage-64 (MDWCPRALWAECFN; left off: large carriers)", "Background signal": 0.068},
      {"substance": "Phage-65 (MDWCPMYLWNECFN; left off: large carriers)", "Background signal": 0.064},
      {"substance": "Phage-93 (MDWCPRYLWTVCFS)", "Background signal": 0.115},
      {"substance": "Phage-94 (MDWCPRDLWSLCFY)", "Background signal": 0.065},
      {"substance": "Phage-95 (MDWCPRFLWSECFN)", "Background signal": 0.062},
      {"substance": "Phage-96 (MDWCPRTLWAYCFN)", "Background signal": 0.070},
      {"substance": "Phage-97 (MDWCPKDLWDYCFA)", "Background signal": 0.078},
      {"substance": "Phage-98 (MDWCPKYLWDVCFN)", "Background signal": 0.096},
      {"substance": "Phage-99 (MDWCPRYLWNMCFH)", "Background signal": 0.114},
      {"substance": "Phage-100 (MDWCPRYLWTECFN)", "Background signal": 0.062},
      {"substance": "Phage-109 (MDWCPKNLWHVCFN)", "Background signal": 0.081},
      {"substance": "Phage-110 (MDWCPRYLWDECFN)", "Background signal": 0.069},
      {"substance": "Phage-111 (MDWCPFYLWNECFY)", "Background signal": 0.099},
      {"substance": "Phage-112 (MHWCPRALWDVCYN)", "Background signal": 0.077},
      {"substance": "Phage-113 (MDWCPRDLWNVCFF)", "Background signal": 0.164},
      {"substance": "Phage-114 (MDWCPRYLWFECFA)", "Background signal": 0.066},
      {"substance": "Phage-115 (MDWCPRYLWHECFN)", "Background signal": 0.105},
      {"substance": "Phage-116 (MDWCPRDLWYACFA)", "Background signal": 0.072},
      {"substance": "Phage-117 (MDWCPRYLWFECFS)", "Background signal": 0.079},
      {"substance": "Phage-118 (MDWCPRHLWDECFF)", "Background signal": 0.074},
      {"substance": "Phage-119 (MDWCPRYLWHMCYS)", "Background signal": 0.129},
      {"substance": "Phage-120 (MDWCPRDLWHACFS)", "Background signal": 0.074},
      {"substance": "Phage-121 (MDWCPRDLWHVCFF)", "Background signal": 0.068},
      {"substance": "Phage-122 (MDWCPRDLWDQCYA)", "Background signal": 0.059},
      {"substance": "Phage-123 (MDWCPIHLWNECFA)", "Background signal": 0.104},
      {"substance": "Phage-124 (MDWCPRPLWDMCFF)", "Background signal": 0.063},
      {"substance": "Phage-125 (MDWCPVSLWHVCFY)", "Background signal": 0.107},
      {"substance": "Phage-126 (MDWCPRFLWNECFN)", "Background signal": 0.072},
      {"substance": "Phage-127 (MDWCPRALWNECFA)", "Background signal": 0.080},
      {"substance": "Phage-128 (MDWCPRDLWIECFF)", "Background signal": 0.084},
      {"substance": "Phage-129 (MDWCPSYLWTVCFA)", "Background signal": 0.062},
      {"substance": "Phage-130 (MDWCPRYLWDACFF)", "Background signal": 0.066},
      {"substance": "Phage-131 (MDWCPRSLWIYCFN)", "Background signal": 0.113},
      {"substance": "Phage-132 (MDWCPTYLWFECFN)", "Background signal": 0.205},
      {"substance": "Phage-133 (MDWCPRFLWDECFF)", "Background signal": 0.064},
      {"substance": "Phage-134 (MDWCPSYLWHECFA)", "Background signal": 0.096},
      {"substance": "Phage-135 (MDWCPKFLWHECFS)", "Background signal": 0.065},
      {"substance": "Phage-136 (MHWCPIYLWDECFN)", "Background signal": 0.071},
      {"substance": "Phage-137 (MDWCPRYLWHECFH)", "Background signal": 0.101},
      {"substance": "Phage-138 (MDWCPTNLWHECFA)", "Background signal": 0.061},
      {"substance": "Phage-139 (MDWCPRDLWDVCFA)", "Background signal": 0.096},
      {"substance": "Phage-140 (MDWCPMDLWDVCFN)", "Background signal": 0.090},
      {"substance": "Phage-141 (MDWCPRSLWNVCFF)", "Background signal": 0.106}
    ]},
    {"test_system": "anti-CD28 scFv", "assay": "Panning ELISA of clonal phage, anti-CD28 scFv, with or without CD28 soluble protein (Peptide-9 library)", "assay_type": "binding", "settings": "background (no anti-CD28 scFv)", "protocol": "as §1", "values": [
      {"substance": "Phage-269 (DSFCTWSAWQECGR; not fully specified; cysteine pairing not given here)", "Background signal": 0.072},
      {"substance": "Phage-270 (MDWCPRDFWAFCFF; cysteine pairing not given here; also: large carriers left off)", "Background signal": 0.118},
      {"substance": "Phage-271 (MDWCPTSFWNRCFH; not fully specified; cysteine pairing not given here; also: large carriers left off)", "Background signal": 0.102},
      {"substance": "Phage-272 (MVWCMSVGWAVCLN; cysteine pairing not given here; also: large carriers left off)", "Background signal": 0.289},
      {"substance": "Phage-273 (IDWCPTAGWTYCWF; not fully specified; cysteine pairing not given here)", "Background signal": 0.071},
      {"substance": "Phage-274 (WVSCLRHHWLECFH; not fully specified; cysteine pairing not given here)", "Background signal": 0.781},
      {"substance": "Phage-275 (MDWCPRDHWVDCYS; not fully specified; cysteine pairing not given here)", "Background signal": 0.172},
      {"substance": "Phage-276 (IDWCPKIHWDLCYF; not fully specified; cysteine pairing not given here)", "Background signal": 0.072},
      {"substance": "Phage-277 (MDWCPRSHWSECFS; not fully specified; cysteine pairing not given here)", "Background signal": 0.080},
      {"substance": "Phage-279 (MDWCPRYLWAECFN; not fully specified; cysteine pairing not given here)", "Background signal": 0.068},
      {"substance": "Phage-280 (MDWCPRYLWDYCFA)", "Background signal": 0.073},
      {"substance": "Phage-281 (MDWCPRSLWFLCFN)", "Background signal": 1.110},
      {"substance": "Phage-282 (MDWCPRDLWFACFA)", "Background signal": 0.060},
      {"substance": "Phage-283 (MDWCPRHLWNECFN)", "Background signal": 0.079},
      {"substance": "Phage-285 (MDWCPRDLWAMCFA)", "Background signal": 0.071},
      {"substance": "Phage-286 (MERCPRYLWHMCYS)", "Background signal": 0.164},
      {"substance": "Phage-288 (MDWCPIALWDFCFA)", "Background signal": 0.073},
      {"substance": "Phage-290 (MDWCPRDLWSVCFS)", "Background signal": 0.090},
      {"substance": "Phage-291 (MDWCPRYLWHVCFY)", "Background signal": 0.227},
      {"substance": "Phage-292 (MDWCPRALWDHCFF)", "Background signal": 0.081},
      {"substance": "Phage-293 (MDWCPRHLWFECFN)", "Background signal": 0.064},
      {"substance": "Phage-294 (MDWCPRSLWDYCFA)", "Background signal": 0.115},
      {"substance": "Phage-299 (MDWCPIYLWAECFN)", "Background signal": 0.078},
      {"substance": "Phage-300 (MDWCPRHLWFECFF)", "Background signal": 0.178},
      {"substance": "Phage-301 (MDWCPRYLWHECFF)", "Background signal": 0.082},
      {"substance": "Phage-302 (MDWCPRYLWHVCFD)", "Background signal": 0.068},
      {"substance": "Phage-303 (MDWCPRYLWTECFS)", "Background signal": 0.074},
      {"substance": "Phage-304 (MDWCPKFLWDECFA)", "Background signal": 0.311},
      {"substance": "Phage-305 (MDWCPRDLWTECFS)", "Background signal": 0.080},
      {"substance": "Phage-306 (MDWCPRHLWNECFA)", "Background signal": 0.068},
      {"substance": "Phage-307 (MDWCPRYLWPVCFH)", "Background signal": 0.179},
      {"substance": "Phage-308 (MDWCPKSLWAECFN)", "Background signal": 0.395}
    ]},
    {"test_system": "anti-CD28 scFv", "assay": "Panning ELISA of clonal phage, anti-CD28 scFv, with or without CD28 soluble protein (Peptide-9 library)", "assay_type": "binding", "settings": "binding to anti-CD28 scFv in presence of CD28 soluble protein", "protocol": "as §1", "values": [
      {"substance": "Phage-273 (IDWCPTAGWTYCWF; not fully specified; cysteine pairing not given here)", "CD28 scFv signal in presence of CD28": 0.075}
    ]}
  ]
}
